Measured values reported in PMC7649969, “Pyrazolyl-pyrimidones inhibit the function of human solute carrier protein SLC11A2 (hDMT1) by metal chelation” (RSC Medicinal Chemistry, 2020).

Molecular target: T1, hDMT1 (Homo sapiens, UniProt P49281)
T1 sequence (P49281 1-568): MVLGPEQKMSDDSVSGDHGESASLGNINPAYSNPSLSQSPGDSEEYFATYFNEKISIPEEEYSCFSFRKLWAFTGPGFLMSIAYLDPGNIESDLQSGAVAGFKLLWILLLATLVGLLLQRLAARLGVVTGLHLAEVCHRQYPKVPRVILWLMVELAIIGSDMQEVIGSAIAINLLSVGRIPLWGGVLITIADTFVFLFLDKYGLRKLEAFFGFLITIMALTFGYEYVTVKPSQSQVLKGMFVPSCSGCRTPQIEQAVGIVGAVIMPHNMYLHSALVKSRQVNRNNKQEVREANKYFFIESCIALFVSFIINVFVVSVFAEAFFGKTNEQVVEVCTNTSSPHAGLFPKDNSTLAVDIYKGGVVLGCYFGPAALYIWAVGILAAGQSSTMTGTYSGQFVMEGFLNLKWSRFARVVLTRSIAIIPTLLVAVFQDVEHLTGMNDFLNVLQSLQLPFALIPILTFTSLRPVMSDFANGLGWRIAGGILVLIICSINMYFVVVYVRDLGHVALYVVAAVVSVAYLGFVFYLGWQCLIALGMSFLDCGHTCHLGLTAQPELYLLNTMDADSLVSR
Experiment: 55Fe2+ uptake by HEK293T cells transiently transfected with hDMT1
Type: cell-based
Set-up: DsRED; expressed in transfected cells; host or cells: HEK293T (ATCC CRL-3216), transient transfection with Lipofectamine 2000
Settings: for inhibition of 55Fe2+ uptake by hDMT1: compound 10 μM, 55Fe2+ 1 μM, pH 5.5, HEK293T; for IC50: HEK293T transiently transfected with hDMT1, 55Fe2+ 1 μM, pH 5.5
Text: Complex formation with Fe^2+ should result in non-selective inhibition of different metal transporters. To test this hypothesis, we investigated whether human SLC39A8 (hZIP8), a transporter of Zn^2+ and Fe^2+ unrelated to SLC11 family, might also be inhibited by our hDMT1 inhibitors. Both SLCs can be tested by inhibition of radioactive iron uptake into HEK293 cells expressing the transporter, at pH 5.5 for hDMT1 and at pH 7.4 for hZIP8.
Fig. 5 Cross reactivity of hDMT1 inhibitors over the functional activity of the divalent metal transporter hZIP8. (a) ^55Fe^2+ uptake (1 μM) by HEK293T cells (source: American Type Culture Collection, catalog no. CRL-3216) transiently transfected with the empty vector (Ev), hDMT1 or hZIP8. Uptake assay was performed at the optimal pH for the functional activity of each transporter (pH 5.5 and pH 7.4 respectively). The indicated compounds (10 μM) were pre-incubated for 5 min, and then, for 15 min with both compound and ^55Fe^2+. Measured ^55Fe^2+ was corrected by subtracting the background iron uptake measured in non-transfected cells. The data was normalized to the Fe^2+ uptake measured in the presence of DMSO (0.1%) and represented as mean ± SD (N = 5–16; obtained from 2 independent experiments). IC50 determination for pyrazolyl-pyrimidone 13 (b) and bipyridine (c) in HEK293T cells transiently transfected with hDMT1 (left panels) or hZIP8 (right panels). ^55Fe^2+ uptake (1 μM) was measured in the presence of the indicated compound concentration ranges, and the measurements were corrected by subtracting the background iron uptake measured in non-transfected cells. IC50 values were calculated by fitting the data to a sigmoidal 4-parameter equation. Representative experiments are depicted, while IC50 values were calculated as mean ± SD of 3 different experiments.
Chemicals and reagents were purchased from Merck, except where indicated otherwise.
Cell Culture. Cellular experiments where conducted either with a HEK293 cell line (ATCC) stably expressing DsRED-hDMT1 plasmid or HEK293T cells (ATCC) transiently transfected with DsRED-hZIP8 or DsRED-hDMT1 plasmids. The cell line stably expressing hDMT1 was generated as described in previous works1,2. In both cases, cells were cultured in Dulbecco´s modified Eagle´s medium (DMEM) supplemented with 10 % foetal bovine serum (FBS), 10 mM HEPES and 1 mM Na-pyruvate under standard cell culture conditions (37 °C, 95 % humidity and air containing 5 % CO2). When culturing the hDMT1 overexpressing cell line, to maintain stable the expression of the exogenous plasmid, culture media was also supplemented with […] geneticin (Life Technologies). […]
Radiolabelled iron uptake assay. Cells were seeded in clear bottom, white-well, poly-D-lysine coated 96-well plates (Corning). HEK293 cells stably over-expressing hDMT1 were seeded 24 hours before the experiment at a density of 50,000 cells/well. HEK293T cells were seeded at 30,000 cells/well 48 hours before the experiment, and 24 hours after were transfected […]
using Lipofectamine 2000 (Life technologies) as described in the manufacturer’s protocol.
Before the uptake assay, culture media was aspirated and the cells were washed with the uptake solution (140 mM NaCl, 2.5 mM KCl, 1 mM CaCl2, 1 mM MgCl2, 1.2 mM K2HPO4, 10 mM glucose, 5 mM HEPES, 5 mM MES, pH 7.4). To determine the iron uptake, the cells were incubated for 15 min at room temperature (RT) with uptake solution (pH 5.5) supplemented with 100 µM Ascorbic acid, and the indicated amount of non-radioactive Ferrous iron (Fe2+) and radiolabelled 55Fe2+ (American Radiolabelled) (0.5 µCi/mL). To stop the uptake process, the solution containing the radiotracer was removed and cells were washed with ice-cold uptake solution (pH 7.5). To determine the iron accumulated within the cells during the incubation time, the scintillation cocktail Mycrosinth 20 (PerkinElmer) was added to each well, and the cells were incubated during 1 hour at RT under constant agitation. […]

Row | inhibition of 55Fe2+ uptake by hDMT1 | Compound | IC50
1 | only inhibited hDMT1 | N=C(N)SCc1cccc2c1oc1c(CSC(=N)N)cccc12 [Compound 1, reference compound] | –
2 | inhibited both transporters | Cc1nn(-c2ccccn2)c(O)c1C(=O)Nc1cccc(C(F)(F)F)c1 [Compound 3, reference compound] | –
3 | inhibited both transporters | Cc1cc(O)nc(-n2nc(C)cc2C)n1 [Compound 5] | –
4 | inhibited both transporters | Cc1cc(=O)[nH]c(-n2nc3c(c2C)CCCC3)n1 [Compound 13] | ~1.1 µM

Row | Compound | inhibition of 55Fe2+ uptake by hDMT1 | IC50
5 | c1ccc(-c2ccccn2)nc1 [bipyridine] | inhibited both transporters | ~6.5 µM
